Key:
Mycobacterium leprae [1] = test: Anti-leprotic activity against rifampicin-susceptible Mycobacterium leprae primary cultures at 4 weeks assessed as [3H]thymidine uptake per 5 times 10^7 cells at 0.3 mg/L incubated for 24 hrs (reference value: 1.05 +/- 0.16 pmol); type: functional
Mycobacterium leprae [2] = test: Anti-leprotic activity against rifampicin-susceptible Mycobacterium leprae subcultures at 4 weeks assessed as ATP level per 10^7 cells at 0.2 mg/L measured by bioluminescence assay (reference value: 425 +/- 64 pg); type: functional
Mycobacterium leprae [3] = test: Anti-leprotic activity against rifampicin-susceptible Mycobacterium leprae primary cultures at 4 weeks assessed as [3H]thymidine uptake per 5 times 10^7 cells at 0.1 mg/L incubated for 24 hrs (reference value: 1.05 +/- 0.16 pmol); type: functional
Mycobacterium leprae [4] = test: Inhibition of PGL1 synthesis in Mycobacterium leprae infected Swiss Webster mouse macrophages assessed as decrease in [U-14C]PA incorporation at 2 uM preincubated for 4 days post infection followed by [U-14C]PA addition and measured after 7 days by liquid scintillation counter analysis relative to control; type: functional
Mycobacterium leprae [5] = test: Anti-leprotic activity against rifampin-susceptible Mycobacterium leprae infected in armadillo assessed as bacterial counts in footpad at 6 mg/kg administered with food daily for 2 weeks (reference value: 125%); type: functional
Mycobacterium leprae [6] = test: Anti-leprotic activity against rifampin-susceptible Mycobacterium leprae infected in armadillo assessed as bacterial counts in footpad at 6 mg/kg administered with food daily for 12 weeks (reference value: 190%); type: functional
Mycobacterium leprae [7] = test: Inhibition of PGL1 synthesis in Mycobacterium leprae infected Swiss Webster mouse macrophages assessed as decrease in [U-14C]PA incorporation at 0.2 uM preincubated for 4 days post infection followed by [U-14C]PA addition and measured after 7 days by liquid scintillation counter analysis relative to control; type: functional
Mycobacterium leprae [8] = test: Anti-leprotic activity against rifampin-susceptible Mycobacterium leprae infected in BALB/c mouse assessed as ATP level per 10^6 Mycobacterium leprae in footpad at 6 mg/kg administered with food daily for 12 weeks by Shepard's kinetic method (reference value: 26.9 +/- 2.90 pg); type: functional
Mycobacterium leprae [9] = test: Anti-leprotic activity against rifampin-susceptible Mycobacterium leprae infected in armadillo assessed as bacterial counts in footpad at 6 mg/kg administered with food daily for 8 weeks (reference value: 162%); type: functional
[10] = Plasma concentration in rifampin-susceptible Mycobacterium leprae infected in BALB/c mouse at 6 mg/kg administered with food daily for 1 week by high-pressure liquid chromatography analysis; type: ADME, organism-based; details: po
Mycobacterium leprae [11] = test: Anti-leprotic activity against rifampicin-susceptible Mycobacterium leprae primary cultures at 4 weeks assessed as ATP level per 10^7 cells at 0.1 mg/L measured by bioluminescence assay (reference value: 332 +/- 46 pg); type: functional
Mycobacterium leprae [12] = test: Anti-leprotic activity against rifampicin-susceptible Mycobacterium leprae subcultures at 4 weeks assessed as [3H]thymidine uptake per 5 times 10^7 cells at 0.1 mg/L incubated for 24 hrs (reference value: 1.41 +/- 0.20 pmol); type: functional
Mycobacterium leprae [13] = test: Anti-leprotic activity against rifampin-susceptible Mycobacterium leprae infected in armadillo assessed as bacterial counts in footpad at 6 mg/kg administered with food daily for 1 week (reference value: 110%); type: functional
[14] = Plasma concentration in rifampin-susceptible Mycobacterium leprae infected in BALB/c mouse at 6 mg/kg administered with food daily for 2 weeks by high-pressure liquid chromatography analysis; type: ADME, organism-based; details: po
[15] = Plasma concentration in rifampin-susceptible Mycobacterium leprae infected in BALB/c mouse at 6 mg/kg administered with food daily for 8 weeks by high-pressure liquid chromatography analysis; type: ADME, organism-based; details: po
Mycobacterium leprae [16] = test: Anti-leprotic activity against rifampin-susceptible Mycobacterium leprae infected in BALB/c mouse assessed as ATP level in footpad at 6 mg/kg administered with food daily for 1 week by Shepard's kinetic method (reference value: 102%); type: functional
Mycobacterium leprae [17] = test: Anti-leprotic activity against rifampin-susceptible Mycobacterium leprae infected in BALB/c mouse assessed as ATP level per 10^6 Mycobacterium leprae in footpad at 6 mg/kg administered with food daily for 8 weeks by Shepard's kinetic method (reference value: 26.1 +/- 3.7 pg); type: functional
Mycobacterium leprae [18] = test: Anti-leprotic activity against rifampin-susceptible Mycobacterium leprae infected in BALB/c mouse assessed as ATP level in footpad at 6 mg/kg administered with food daily for 2 weeks by Shepard's kinetic method (reference value: 109%); type: functional
Mycobacterium leprae [19] = test: Anti-leprotic activity against rifampin-susceptible Mycobacterium leprae infected in BALB/c mouse assessed as ATP level in footpad at 6 mg/kg administered with food daily for 4 weeks by Shepard's kinetic method (reference value: 98%); type: functional
Mycobacterium leprae [20] = test: Anti-leprotic activity against rifampin-susceptible Mycobacterium leprae infected in armadillo assessed as bacterial counts in footpad at 6 mg/kg administered with food daily for 16 weeks (reference value: 226%); type: functional
[21] = Plasma concentration in rifampin-susceptible Mycobacterium leprae infected in BALB/c mouse at 6 mg/kg administered with food daily for 4 weeks by high-pressure liquid chromatography analysis; type: ADME, organism-based; details: po
Mycobacterium leprae [22] = test: Anti-leprotic activity against rifampicin-susceptible Mycobacterium leprae primary cultures at 4 weeks assessed as [3H]thymidine uptake per 5 times 10^7 cells at 0.2 mg/L incubated for 24 hrs (reference value: 1.05 +/- 0.16 pmol); type: functional
Mycobacterium leprae [23] = test: Anti-leprotic activity against rifampicin-susceptible Mycobacterium leprae subcultures at 4 weeks assessed as [3H]thymidine uptake per 5 times 10^7 cells at 0.2 mg/L incubated for 24 hrs (reference value: 1.41 +/- 0.20 pmol); type: functional
Mycobacterium leprae [24] = test: Anti-leprotic activity against rifampin-susceptible Mycobacterium leprae infected in BALB/c mouse assessed as ATP level per 10^6 Mycobacterium leprae in footpad at 6 mg/kg administered with food daily for 16 weeks by Shepard's kinetic method (reference value: 27.9 +/- 3.60 pg); type: functional
Mycobacterium leprae [25] = test: Anti-leprotic activity against rifampicin-susceptible Mycobacterium leprae subcultures at 4 weeks assessed as ATP level per 10^7 cells at 0.1 mg/L measured by bioluminescence assay (reference value: 425 +/- 64 pg); type: functional
Mycobacterium leprae [26] = test: Anti-leprotic activity against rifampicin-susceptible Mycobacterium leprae primary cultures at 4 weeks assessed as ATP level per 10^7 cells at 0.3 mg/L measured by bioluminescence assay (reference value: 332 +/- 46 pg); type: functional
[27] = Plasma concentration in rifampin-susceptible Mycobacterium leprae infected in BALB/c mouse at 6 mg/kg administered with food daily for 12 weeks by high-pressure liquid chromatography analysis; type: ADME, organism-based; details: po
Mycobacterium leprae [28] = test: Anti-leprotic activity against rifampicin-susceptible Mycobacterium leprae subcultures at 4 weeks assessed as [3H]thymidine uptake per 5 times 10^7 cells at 0.3 mg/L incubated for 24 hrs (reference value: 1.41 +/- 0.20 pmol); type: functional
Mycobacterium leprae [29] = test: Anti-leprotic activity against rifampicin-susceptible Mycobacterium leprae primary cultures at 4 weeks assessed as ATP level per 10^7 cells at 0.2 mg/L measured by bioluminescence assay (reference value: 332 +/- 46 pg); type: functional
Mycobacterium leprae [30] = test: Anti-leprotic activity against rifampicin-susceptible Mycobacterium leprae subcultures at 4 weeks assessed as ATP level per 10^7 cells at 0.3 mg/L measured by bioluminescence assay (reference value: 425 +/- 64 pg); type: functional
Mycobacterium leprae [31] = test: Anti-leprotic activity against rifampin-susceptible Mycobacterium leprae infected in armadillo assessed as bacterial counts in footpad at 6 mg/kg administered with food daily for 4 weeks (reference value: 141%); type: functional

Q: What does the source list for `CO[C@H]1/C=C/O[C@@]2(C)Oc3c(C)c(O)c4c(c3C2=O)C2=NC3(CCN(CC(C)C)CC3)NC2=C(NC(=O)/C(C)=C\C=C\[C@H](C)[C@H](O)[C@@H](C)[C@@H](O)[C@@H](C)[C@H](OC(C)=O)[C@@H]1C)C4=O` [RIFABUTIN]?
A: Activity (Mycobacterium leprae [1]): 0 pmol; Activity (Mycobacterium leprae [2]): 0 pg; Activity (Mycobacterium leprae [3]): 0.65 pmol; inhibition at 2 µM (Mycobacterium leprae [4]): 96%; Activity (Mycobacterium leprae [5]): 98%; Activity (Mycobacterium leprae [6]): 83%; inhibition at 0.2 µM (Mycobacterium leprae [7]): 84%; Activity (Mycobacterium leprae [8]): 0 pg; Activity (Mycobacterium leprae [9]): 89%; concentration at 168 h [10]: 380 ng/mL; Activity (Mycobacterium leprae [11]): 192 pg; Activity (Mycobacterium leprae [12]): 0 pmol; Activity (Mycobacterium leprae [13]): 101%; concentration at 336 h [14]: 450 ng/mL; concentration at 1344 h [15]: 52 ng/mL; Activity (Mycobacterium leprae [16]): 72%; Activity (Mycobacterium leprae [17]): 0.049 pg; Activity (Mycobacterium leprae [18]): 21%; Activity (Mycobacterium leprae [19]): 9%; Activity (Mycobacterium leprae [20]): 77%; concentration at 672 h [21]: 510 ng/mL; Activity (Mycobacterium leprae [22]): 0 pmol; Activity (Mycobacterium leprae [23]): 0.49 pmol; Activity (Mycobacterium leprae [24]): 0 pg; Activity (Mycobacterium leprae [25]): 127 pg; Activity (Mycobacterium leprae [26]): 0 pg; concentration at 2016 h [27]: 90 ng/mL; Activity (Mycobacterium leprae [28]): 0 pmol; Activity (Mycobacterium leprae [29]): 0 pg; Activity (Mycobacterium leprae [30]): 0 pg; Activity (Mycobacterium leprae [31]): 94%
